The text below walks through data of the supplement of paper PMC10307832.

What all share (experiment): relative viability (nuclei count vs DMSO), 5 days (fraction); higher = more cells survive
Compound in the experiment “Ponatinib + Vorinostat”: Cc1ccc(C(=O)Nc2ccc(CN3CCN(C)CC3)c(C(F)(F)F)c2)cc1C#Cc1cnc2cccnn12 [Ponatinib] + O=C(CCCCCCC(=O)Nc1ccccc1)NO [Vorinostat] (partner 1 µM)
The method, boiled down:
(§1)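 Lung cancer cell lines were seeded in 1536-well plates and dosed by pin tool the next day, with either a single drug or a fixed anchor-drug dose combined with five library-drug doses (not always all listed) spaced in √10 steps. Five days later, one step fixed the cells and stained their nuclei (final 0.05% Triton X-100, 1% formaldehyde, 1 ug/ml Hoechst), and nuclei were counted on 4× images. Relative viability is the nuclei count in treated wells divided by the count in vehicle wells, and each value is the median of duplicate plates.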

Compound in the experiment “Ponatinib + Alpelisib”: Cc1ccc(C(=O)Nc2ccc(CN3CCN(C)CC3)c(C(F)(F)F)c2)cc1C#Cc1cnc2cccnn12 [Ponatinib] + Cc1nc(NC(=O)N2CCC[C@H]2C(N)=O)sc1-c1ccnc(C(C)(C)C(F)(F)F)c1 [Alpelisib] (partner 2 µM)
A digest of the protocol:
as §1

Compound in the experiment “Ponatinib + Decitabine”: Cc1ccc(C(=O)Nc2ccc(CN3CCN(C)CC3)c(C(F)(F)F)c2)cc1C#Cc1cnc2cccnn12 [Ponatinib] + Nc1ncn([C@H]2C[C@H](O)[C@@H](CO)O2)c(=O)n1 [Decitabine] (partner 2 µM)
The method, boiled down:
as §1

Compound in the experiment “Pazopanib + Lapatinib”: Cc1ccc(Nc2nccc(N(C)c3ccc4c(C)n(C)nc4c3)n2)cc1S(N)(=O)=O [Pazopanib] + CS(=O)(=O)CCNCc1ccc(-c2ccc3ncnc(Nc4ccc(OCc5cccc(F)c5)c(Cl)c4)c3c2)o1 [Lapatinib] (partner 2 µM)
A digest of the protocol:
as §1

Turning to UMC-11, the relative viability is 0.411 with Ponatinib + Vorinostat (first compound 0.002 µM); 0.403 in the experiment with Ponatinib + Vorinostat (first compound 0.006325 µM); 0.51 in the experiment with Ponatinib + Vorinostat (first compound 0.06325 µM); 0.486 with Ponatinib + Vorinostat (first compound 0.2 µM); 1.07 in the experiment with Ponatinib + Alpelisib (first compound 0.002 µM); 1.04 with Ponatinib + Alpelisib (first compound 0.006325 µM). Besides, the relative viability with Ponatinib + Alpelisib (first compound 0.06325 µM) is 1.01; with Ponatinib + Alpelisib (first compound 0.2 µM) it was 0.951; in the experiment with Ponatinib + Decitabine (first compound 0.006325 µM), 0.595; with Ponatinib + Decitabine (first compound 0.06325 µM), 0.709; in the experiment with Ponatinib + Decitabine (first compound 0.2 µM), 0.575; with Pazopanib + Lapatinib (first compound 0.01 µM) it was 0.807. Besides, the relative viability with Pazopanib + Lapatinib (first compound 0.03162 µM) was 1.03; with Pazopanib + Lapatinib (first compound 0.1 µM), 0.939; with Pazopanib + Lapatinib (first compound 0.3162 µM), 1.01; with Pazopanib + Lapatinib (first compound 1 µM) it was 1.12.
